# Publication PMC5218591 (Bioorganic & medicinal chemistry, 2016)
# Molecular target: GPR88 (Homo sapiens, UniProt Q9GZN0)
# Conditions: for fold less potent than 3: versus 3; for agonist activity at GPR88 (in words): purified compounds, Lance cAMP assay
# GPR88, sequence (Q9GZN0 whole entry, species assumed): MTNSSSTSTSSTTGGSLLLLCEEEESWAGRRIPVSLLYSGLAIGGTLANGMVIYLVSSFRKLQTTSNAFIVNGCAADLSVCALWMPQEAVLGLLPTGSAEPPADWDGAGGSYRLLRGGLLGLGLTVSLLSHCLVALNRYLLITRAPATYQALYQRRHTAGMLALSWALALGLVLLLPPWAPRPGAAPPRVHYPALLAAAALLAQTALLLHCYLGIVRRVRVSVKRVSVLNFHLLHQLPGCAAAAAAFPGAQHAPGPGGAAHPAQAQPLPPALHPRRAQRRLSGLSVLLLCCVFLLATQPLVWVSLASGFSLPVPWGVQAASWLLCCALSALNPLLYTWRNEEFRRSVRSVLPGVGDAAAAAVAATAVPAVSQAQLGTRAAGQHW
compound,measurement,setting,value
"CCCC(C)COc1ccc([C@@H](NC(=O)[C@@H](C)c2ccccc2)C(=O)OC)cc1 (stereo partly drawn) [Compound 11a, Methyl (2R)-2-[4-(2-methylpentyloxy)phenyl]-2-[(S)-2-phenylpropanamido]acetate]",fold less potent than 3,,approximately 2.5 fold
"CCCC(C)COc1ccc([C@@H](NC(=O)[C@@H](C)c2ccccc2)C(=O)O)cc1 (stereo partly drawn) [Compound 11b, (2R)-2-[4-(2-Methylpentyloxy)phenyl]-2-[(S)-2-phenylpropanamido]acetic acid]",agonist activity at GPR88 (in words),,completely inactive
"CCCC(C)COc1ccc([C@H](CO)NC(=O)Cc2ccccc2)cc1 (stereo partly drawn) [Compound 12a, N-{(1R)-2-Hydroxy-1-[4-(2-methylpentyloxy)phenyl]ethyl}-2-phenylacetamide]",fold less potent than 3,,approximately 2 fold
"CCCC(C)COc1ccc([C@@H](NC(=O)C(C)C2CCCCC2)C(=O)OC)cc1 (stereo partly drawn) [Compound 12d, Methyl (2R)-2-[4-(2-methylpentyloxy)phenyl]-2-[(R,S)-2-cyclohexylpropanamido]-acetate]",agonist activity at GPR88 (in words),,completely inactive
"CCCC(C)COc1ccc([C@@H](NC(=O)Cc2ccccc2)C(=O)OC)cc1 (stereo partly drawn) [Compound 13a, Methyl (2R)-2-[4-(2-methylpentyloxy)phenyl]-2-(2-phenylacetamido)acetate]",fold less potent than 11a,versus 11a,5 fold
"CCCC(C)COc1ccc([C@@H](NC(=O)[C@@H](CC)c2ccccc2)C(=O)OC)cc1 (stereo partly drawn) [Compound 13aw, Methyl (2R)-2-[4-(2-methylpentyloxy)phenyl]-2-[(S)-2-phenylbutanamido]acetate]",agonist activity at GPR88 (in words),,equipotent with 11a
same,fold more potent than 13a,versus 13a,4.5 fold
CCCC(C)COc1ccc([C@@H](NC(=O)[C@H](C)c2ccccc2)C(=O)OC)cc1 (some centres unmarked) [Compound 13az],agonist activity as percentage of TR-FRET signal of the control compound 11a,"library screen at 1 μM final, crude compounds, 11a = 100%, Figure 2",less potent than the (S)-isomer
